Earlier results as cited in PMC7503629, “Synthesis and Biological Studies on Dinuclear Gold(I) Complexes with Di-(N-Heterocyclic Carbene) Ligands Functionalized with Carbohydrates” (Molecules, 2020).

Set-up: method as in doi:10.1002/ejic.201700768
Conditions: attributed to low mitochondrial penetration; cited from earlier work

In the case of “[Au(magi)Cl] (magi = 1-methyl-3-(2,3,4,6-tetra-O-acetyl-β-D-glucopyranosyl)imidazole-2-ylidene)”, the “antiproliferative activity (in words)” value is listed as “inertness”.
